In the assay the test system is Hepatitis C replicon. Put plainly: HCV replicon assay (NPT ELISA readout) in Huh-7 replicon-containing cells. It is filed as cell-based, Hepatitis C virus. As to conditions: Hepatitis C virus, 72 h; HCV replicon in Huh-7 cells, three days incubation. The protocol:
Compounds claimed herein are tested for the ability to inhibit viral replication of the Hepatitis C replicon in cultured cells in which the HCV replicon construct has been incorporated. The HCV replicon system was described by Bartenschlager, et. al (Science, 285, pp. 110-113 (1999)). The replicon system is predictive of in vivo anti-HCV activity; compounds that are active in humans uniformly evidence activity in the replicon assay.
In this assay HCV replicon containing cells are treated with different concentrations of the test compound to ascertain the ability of the test compound to suppress replication of the HCV replicon. As a positive control, HCV replicon-containing cells are treated with different concentrations of interferon alpha, a known inhibitor of HCV replication. The replicon assay system includes Neomycin Phosphotransferase (NPT) as a component of the replicon itself in order to detect the transcription of replicon gene products in the host cell. Cells in which the HCV replicon is actively replicating have high levels of NPT; the level of NPT is proportional to HCV replication. […] The NPT level of each sample is measured using a captured ELISA.
A protocol for testing compounds for the ability to inhibit viral replication of the Hepatitis C replicon cultured cells in which the replicon construct has been incorporated, follows.
The HCV replicon contains, 5′-3′, the HCV-IRES, the neomycin phosphotransferase (neo) gene, the IRES of encephalomyocarditis virus, which directs translation of HCV sequences NS3 to NS5B, and the 3′-NTR. The sequence of the HCV replicon has been deposited in GenBank (Accession no. AJ242652).
The replicon is transfected into Huh-7 cells using standard methods such as electroporation.
The equipment and materials include, but are not limited to, Huh-7 HCV replicon-containing cells, maintenance media (DMEM (Dulbecco's modified Eagle media) supplemented with 10% FBS, L-glutamine, non-essential amino acids, penicillin (100 units/ml), streptomycin (100 micrograms/ml), and 500 micrograms/ml of Geneticin (G418), screening media (DMEM supplemented with 10% FBS, L-glutamine, non-essential amino acids, penicillin (100 units/ml) and streptomycin (100 micrograms/ml)), 96 well tissue culture plates (flat bottom), 96 well plates (U bottom for drug dilution), Interferon alpha for positive control, fixation reagent (such as methanol:acetone), primary antibody (rabbit anti-NPTII), secondary antibody: Eu-N1 l, and enhancement solution.
The cells are then seeded onto 96-well plates at a density of 6000-7500 cells/100 microliters/well (6-7.5×10^5 cells/10 ml/plate). The plates are then incubated at 37° C. in a 5% CO2 incubator.
HCV replicon-containing cells are rinsed with once PBS once; 2 mls of trypsin are then added. Cells are incubated at 37° C. in a 5% CO2 incubator for 3-5 minutes. 10 mls of complete medium is added to stop the reaction. Cells are blown gently, put into a 15 ml tube, and spun at 1200 rpm for four minutes. The trypsin/medium solution is removed and 5 mls of medium (500 ml DMEM (high glucose)) from BRL catalog #12430-054; 50 mls 10% FBS, 5% Geneticin G418 (50 mg/ml, BRL catalog #10131-035), 5 ml MEM non-essential amino acids (100×BRL #11140-050) and 5 ml pen-strep (BRL #15140-148) is added. The cells and media are mixed carefully
Cells are plated with screening medium (500 ml DMEM (BRL #21063-029), 50 ml FBS (BRL #10082-147) and 5 ml MEM non-essential amino acid (BRL #11140-050) at 6000-7500 fcells/100 μl/well of 96 well plate (6-7.5×10^5 cells/10 ml/plate). Plates are placed into 37° C. 5% CO2 incubator overnight.
The following morning, drugs (test compounds or interferon alpha) are diluted in 96 well U bottom plates with media or DMSO/media, depending on the final concentration chosen for screening. Generally for 6 concentrations of each test compounds ranging from 10 micromolar to 0.03 micromolar are applied. […]
On the technique in general: A replicon is a self-replicating genome or part of one, used to study replication in cells.

The structures appear in SMILES notation.

The values below come from US8697641B2, “4-amino-4-oxobutanoyl peptide cyclic analogues, inhibitors of viral replication” (Achillion Pharmaceuticals, Inc., priority 2008, dated 2014).

The EC50 is the concentration giving half of the maximal effect. A high value points to lower potency in that assay. `COc1ccc2c(O[C@@H]3C[C@H]4C(=O)N[C@]5(C(=O)NS(=O)(=O)C6CC6)C[C@H]5/C=C\CCCCC[C@H](CC(=O)N5CCC(F)(F)CC5)C(=O)N4C3)cc(-c3ccccc3)nc2c1` [Compound 61, (2R,6R,13aS, 14aR,16aS,Z)-N-(cyclopropylsulfonyl)-6-(2-(4,4-difluoropiperidin-1-yl)-2-oxoethyl)-2-(7-methoxy-2-phenylquinolin-4-yloxy)-5,16-dioxo-1,2,3,5,6,7,8,9,10,11, 13a,14,14a,15,16,16a-hexadecahydrocyclopropa [e]pyrrolo[1,2-a][1,4] diazacyclopentadecine-14a-carboxamide]: the EC50 is less than 1000 nM.

The molecule `COc1ccc2c(O[C@@H]3C[C@H]4C(=O)N[C@]5(C(=O)NS(=O)(=O)C6CC6)C[C@H]5/C=C\CCCCC[C@H](CC(=O)N5CCC(C(F)(F)F)CC5)C(=O)N4C3)cc(-c3ccccc3)nc2c1` [Compound 62, (2R,6R,13aS, 14aR,16aS,Z)-N-(cyclopropylsulfonyl)-2-(7-methoxy-2-phenylquinolin-4-yloxy)-5,16-dioxo-6-(2-oxo-2-(4-(trifluoromethyl)piperidin-1-yl)ethyl)-1,2,3,5,6,7,8,9,10,11, 13a,14,14a,15,16,16a-hexadecahydrocyclopropa [e]pyrrolo[1,2-a][1,4] diazacyclopentadecine-14a-carboxamide] returned a half-maximal effective concentration (EC50) of less than 1000 nM.

For `COc1ccc2c(O[C@@H]3C[C@H]4C(=O)N[C@]5(C(=O)NS(=O)(=O)C6CC6)C[C@H]5/C=C\CCCCC[C@H](CC(=O)N5CCC(F)(F)C5)C(=O)N4C3)cc(-c3ccccc3)nc2c1` [Compound 63, (2R,6R,13aS, 14aR,16aS,Z)-N-(cyclopropylsulfonyl)-6-(2-(3,3 - difluoropyrrolidin-1-yl)-2-oxoethyl)-2-(7-methoxy-2-phenylquinolin-4-yloxy)-5,16-dioxo-1,2,3,5,6,7,8,9,10,11, 13a,14,14a,15,16,16a-hexadecahydrocyclopropa [e]pyrrolo[1,2-a][1,4] diazacyclopentadecine-14a-carboxamide], the EC50 is less than 1000 nM.

Turning to `COc1ccc2c(O[C@@H]3C[C@H]4C(=O)NC(C)(C(=O)O)C/C=C\CCCCC[C@H](CC(=O)N5CCCCC5)C(=O)N4C3)cc(-c3ccccc3)nc2c1` (stereo partly drawn) [Compound 64, (12R,16R,17aS,Z)-16-(7-methoxy-2-phenylquinolin-4-yloxy)-3-methyl-1,13-dioxo-12-(2-oxo-2-(piperidin-1-yl)ethyl)-2,3,4,7,8,9,10,11, 12,13,15,16,17,17a-tetradecahydro-1H-pyrrolo[1,2-a][1,4] diazacyclopentadecine-3-carboxylic acid], the EC50 fell in the range of 1000 to 10000 nM.

In the case of `COc1ccc2c(O[C@@H]3C[C@H]4C(=O)N[C@@](C)(C(=O)NS(=O)(=O)C5CC5)C/C=C\CCCCC[C@H](CC(=O)N5CCCCC5)C(=O)N4C3)cc(-c3ccccc3)nc2c1` [Compound 65, (3R,12R,16R,17aS,Z)-N-(cyclopropylsulfonyl)-16-(7-methoxy-2-phenylquinolin-4-yloxy)-3-methyl-1,13-dioxo-12-(2-oxo-2-(piperidin-1-yl)ethyl)-2,3,4,7,8,9,10, 11,12,13,15,16,17,17a-tetradecahydro-1H-pyrrolo[1,2-a][1,4] diazacyclopentadecine-3-carboxamide], the EC50 was 1000 to 10000 nM.

In turn, `COc1ccc2c(O[C@@H]3C[C@H]4C(=O)N[C@](C)(C(=O)NS(=O)(=O)C5CC5)C/C=C\CCCCC[C@H](CC(=O)N5CCCCC5)C(=O)N4C3)cc(-c3ccccc3)nc2c1` [Compound 66, (3S,12R,16R,17aS,Z)-N-(cyclopropylsulfonyl)-16-(7-methoxy-2-phenylquinolin-4-yloxy)-3-methyl-1,13-dioxo-12-(2-oxo-2-(piperidin-1-yl)ethyl)-2,3,4,7,8,9,10, 11,12,13,15,16,17,17a-tetradecahydro-1H-pyrrolo[1,2-a][1,4] diazacyclopentadecine-3-carboxamide] displayed an EC50 of 1000 to 10000 nM.

For `COc1ccc2c(O[C@@H]3C[C@H]4C(=O)N[C@]5(C(=O)NS(=O)(=O)C6CC6)C[C@H]5/C=C\CCCCC[C@H](CC(=O)N5CCN(C(=O)OC(C)(C)C)CC5)C(=O)N4C3)cc(-c3ccccc3)nc2c1` [Compound 67, tert-butyl 4-(2-((2R,6R, 13aS,14aR,16aS,Z)-14a-(cyclopropylsulfonyl-carbamoyl)-2-(7-methoxy-2-phenylquinolin-4-yloxy)-5,16-dioxo-1,2,3,5,6,7,8,9,10,11, 13a,14,14a,15,16,16a-hexadecahydrocyclopropa [e]pyrrolo[1,2-a][1,4]diazacyclopentadecin-6-yl)acetyl)piperazine-1-carboxylate], the EC50 was less than 1000 nM.

Take `COc1ccc2c(O[C@@H]3C[C@H]4C(=O)N[C@]5(C(=O)NS(=O)(=O)C6CC6)C[C@H]5/C=C\CCCCC[C@H](CC(=O)N5CC(C)CC(C)C5)C(=O)N4C3)cc(-c3ccccc3)nc2c1` (stereo partly drawn) [Compound 68, (2R,6R,13aS, 14aR,16aS,Z)-N-(cyclopropylsulfonyl)-6-(2-(3,5-dimethylpiperidin-1-yl)-2-oxoethyl)-2-(7-methoxy-2-phenylquinolin-4-yloxy)-5,16-dioxo-1,2,3,5,6,7,8,9,10,11, 13a,14,14a,15,16,16a-hexadecahydrocyclopropa [e]pyrrolo[1,2-a][1,4] diazacyclopentadecine-14a-carboxamide]: the EC50 is less than 1000 nM.

In the case of `COc1ccc2c(O[C@@H]3C[C@H]4C(=O)N[C@]5(C(=O)NS(=O)(=O)C6CC6)C[C@H]5/C=C\CCCCC[C@H](CC(=O)N5C(C)CCCC5C)C(=O)N4C3)cc(-c3ccccc3)nc2c1` (stereo partly drawn) [Compound 69, (2R,6R,13aS, 14aR,16aS,Z)-N-(cyclopropylsulfonyl)-6-(2-(2,6-dimethylpiperidin-1-yl)-2-oxoethyl)-2-(7-methoxy-2-phenylquinolin-4-yloxy)-5,16-dioxo-1,2,3,5,6,7,8,9,10,11, 13a,14,14a,15,16,16a-hexadecahydrocyclopropa [e]pyrrolo[1,2-a][1,4] diazacyclopentadecine-14a-carboxamide], the EC50 was less than 1000 nM.

Turning to `COc1ccc2c(O[C@@H]3C[C@H]4C(=O)N[C@]5(C(=O)NS(=O)(=O)C6CC6)C[C@H]5/C=C\CCCCC[C@H](CC(=O)N5CCC(F)CC5)C(=O)N4C3)cc(-c3ccccc3)nc2c1` [Compound 70, (2R,6R,13aS, 14aR,16aS,Z)-N-(cyclopropylsulfonyl)-6-(2-(4-fluoropiperidin-1-yl)-2-oxoethyl)-2-(7-methoxy-2-phenylquinolin-4-yloxy)-5,16-dioxo-1,2,3,5,6,7,8,9,10,11, 13a,14,14a,15,16,16a-hexadecahydrocyclopropa [e]pyrrolo[1,2-a][1,4] diazacyclopentadecine-14a-carboxamide], the EC50 was less than 1000 nM.

In turn, `COc1ccc2c(O[C@@H]3C[C@H]4C(=O)N[C@]5(C(=O)NS(=O)(=O)C6CC6)C[C@H]5/C=C\CCCCC[C@H](CC(=O)N5CCCC(C(F)(F)F)C5)C(=O)N4C3)cc(-c3ccccc3)nc2c1` (stereo partly drawn) [Compound 71, (2R,6R,13aS, 14aR,16aS,Z)-N-(cyclopropylsulfonyl)-2-(7-methoxy-2-phenylquinolin-4-yloxy)-5,16-dioxo-6-(2-oxo-2-(3-(trifluoromethyl)piperidin-1-yl)ethyl)-1,2,3,5,6,7,8,9,10,11, 13a,14,14a,15,16,16a-hexadecahydrocyclopropa [e]pyrrolo[1,2-a][1,4] diazacyclopentadecine-14a-carboxamide] registered an EC50 of less than 1000 nM.
